From the OPERA property sets (Mansouri et al. 2018)

SMILES | logP
COC(=O)c1cncc(Cl)n1 | 0.47
CCOc1cncc(Cl)n1 | 2.22
CN(C)c1cncc(Cl)n1 | 1.95
Nc1cncc(Cl)n1 | 0.95
COc1cncc(Cl)n1 | 1.65
Cc1cncc(Cl)n1 | 1.04
CCCOc1cncc(Cl)n1 | 2.71
NC(=O)c1cncc(Cl)n1 | 0.28
Clc1cncc(Cl)n1 | 1.53
CC(=O)Nc1cncc(Cl)n1 | 1.1
N#Cc1cncc(Cl)n1 | 0.79
Fc1cncc(Cl)n1 | 1.16
